The target of the experiment is T1, KCNQ 2/3 channels (Homo sapiens, UniProt O43525+O43526).
T1 construct: expressed in transfected cells; host or cells: HEK293
Description: KCNQ 2/3 channel activation, thallium flux FLIPR assay (BTC-AM dye). The following applies: for Emax: HEK293, maximum response relative to the response of 10 μM retigabine (set at 100%), HEK293 KCNQ2/KCNQ3 cells, read-out: % MAX; for EC50: HEK293 cells stably expressing human KCNQ2 and KCNQ3 subunits, thallium-induced fluorescence, 4 min compound incubation. It is filed as cell-based. As for the experimental part:
The following example describes the assay that can be used to identify compounds that activate KCNQ 2/3 channels.
HEK293 cells stably expressing human KCNQ2 and KCNQ3 subunits were seeded in 96-well, black-walled, clear-bottomed, poly-D-lysine coated plates (BD Biosciences, Bedford, Mass.) at a density of 1×10^5 cells per well 24 hours before the assay. On the assay day, BTC-AM dye (Invitrogen, Carlsbad, Calif.) was loaded into the cells by replacing the cell culture medium with 55 μL/well of 3 μg/mL dye in DPBS. Dye loading was allowed to proceed for 2 hours at room temperature and then cells were washed twice with 50 μL/well of assay buffer (in mM: 10 HEPES pH 7.3, 5 glucose, 140 Na-gluconate, 2.5 K-gluconate, 3.6 Ca-gluconate, 2 MgSO4, 0.1 Ouabain) to remove unloaded dye. Cells were incubated in 50 μL of assay buffer before loading onto a FLIPR system (Molecular Devices, Sunnyvale, Calif.). Various concentrations of compounds to be assayed were added to the cells in 50 μL of assay buffer and incubated for 4 minutes. The fluorescence signal was initiated by adding 100 μL of assay buffer containing 6 mM TlNO3 and 10 mM K2SO4. Fluors were excited using the 488-nm line of an argon laser and emission was filtered using a 540±30 nm bandpass filter. Fluorescent signals were recorded for 3 minutes. Sums of the responses over basal responses were plotted versus concentrations of test compounds to obtain an EC50 value. The maximum response for each test compound was determined relative to the response produced by 10 μM retigabine. The maximum response of retigabine at 10 μM was set at 100%.

Usually EC50 stands for the concentration needed to bring the measured effect to its halfway point. A high value points to a need for much substance.

For `O=C(CC1CC2CCC1C2)Nn1nc(N2CCOCC2)c2ccccc2c1=O` (racemic) [Example 3, (±)-2-[(exo)-bicyclo[2.2.1]hept-2-yl]-N-[4-(morpholin-4-yl)-1-oxophthalazin-2(1H)-yl]acetamide], the Emax came to 142% and the EC50 is 331 nM.
On to `O=C(CC1CC2CCC1C2)Nn1nc(-c2ccc(Cl)nc2)c2ccccc2c1=O` (racemic) [Example 4, (±)-2-[(exo)-bicyclo[2.2.1]hept-2-yl]-N-[4-(6-chloropyridin-3-yl)-1-oxophthalazin-2(1H)-yl]acetamide], for which the Emax was 133% and the EC50 came out at 60.6 nM.
The like results for `O=C(CC1CC2CCC1C2)Nn1nc(C2=CCOCC2)c2ccccc2c1=O` (racemic) [Example 6, (±)-2-[(exo)-bicyclo[2.2.1]hept-2-yl]-N-[4-(3,6-dihydro-2H-pyran-4-yl)-1-oxophthalazin-2(1H)-yl]acetamide] were, in that order, 140% and 515 nM.
On the same counts, the results for `O=C(CC1CC2CCC1C2)Nn1nc(-c2cccnc2)c2ccccc2c1=O` (racemic) [Example 8, (±)-2-[(exo)-bicyclo[2.2.1]hept-2-yl]-N-[1-oxo-4-(pyridin-3-yl)phthalazin-2(1H)-yl]acetamide] are 129% and 455 nM.
Consider `O=C(CC1CC2CCC1C2)Nn1nc(-c2cccs2)c2ccccc2c1=O` (racemic) [Example 12, (±)-2-[(exo)-bicyclo[2.2.1]hept-2-yl]-N-[1-oxo-4-(thiophen-2-yl)phthalazin-2(1H)-yl]acetamide], for which the Emax turned out to be 136% and it took 67.4 nM to reach a half-maximal effect (EC50).
With `Cc1ccsc1-c1nn(NC(=O)CC2CC3CCC2C3)c(=O)c2ccccc12` (racemic) [Example 16, (±)-2-[(exo)-bicyclo[2.2.1]hept-2-yl]-N-[4-(3-methylthiophen-2-yl)-1-oxophthalazin-2(1H)-yl]acetamide], the Emax is 140% and the EC50 is 116 nM.
As to `O=C(CC1CC2CCC1C2)Nn1nc(-c2ccccn2)c2ccccc2c1=O` (racemic) [Example 19, (±)-2-[(exo)-bicyclo[2.2.1]hept-2-yl]-N-[1-oxo-4-(pyridin-2-yl)phthalazin-2(1H)-yl]acetamide], the Emax came to 146% and the EC50 was found to be 168 nM.
For the compound `O=C(CC1CC2CCC1C2)Nn1nc(N2CCCC2)c2ccccc2c1=O` (racemic) [Example 23, (±)-2-[(exo)-bicyclo[2.2.1]hept-2-yl]-N-[1-oxo-4-(pyrrolidin-1-yl)phthalazin-2(1H)-yl]acetamide], the Emax worked out at 147% and the EC50 turned out to be 62.8 nM.
On the same counts, the results for `O=C(CC1CC2CCC1C2)Nn1nc(N2CCCCC2)c2ccccc2c1=O` (racemic) [Example 25, (±)-2-[(exo)-bicyclo[2.2.1]hept-2-yl]-N-[1-oxo-4-(piperidin-1-yl)phthalazin-2(1H)-yl]acetamide] are 144% and 25.3 nM.
The like results for `COc1ccc(-c2nn(NC(=O)CC3CC4CCC3C4)c(=O)c3ccccc23)cn1` (racemic) [Example 26, (±)-2-[(exo)-bicyclo[2.2.1]hept-2-yl]-N-[4-(6-methoxypyridin-3-yl)-1-oxophthalazin-2(1H)-yl]acetamide] were, in that order, 137% and 306 nM.
On the same counts, the results for `O=C(CC1CC2CCC1C2)Nn1nc(C2CCOCC2)c2ccccc2c1=O` (racemic) [Example 28, (±)-2-[(exo)-bicyclo[2.2.1]hept-2-yl]-N-[1-oxo-4-(tetrahydro-2H-pyran-4-yl)phthalazin-2(1H)-yl]acetamide] are 145% and 447 nM.
`O=C(CC1CC2CCC1C2)Nn1nc(-c2ccnc(Cl)c2)c2ccccc2c1=O` (racemic) [Example 29, (±)-2-[(exo)-bicyclo[2.2.1]hept-2-yl]-N-[4-(2-chloropyridin-4-yl)-1-oxophthalazin-2(1H)-yl]acetamide]: the Emax came to 137% and the EC50 came to 67.1 nM.
On the same counts, the results for `O=C(CC1CC2CCC1C2)Nn1nc(Cc2ccc(Cl)nc2)c2ccccc2c1=O` (racemic) [Example 30, (±)-2-[(exo)-bicyclo[2.2.1]hept-2-yl]-N-{4-[(6-chloropyridin-3-yl)methyl]-1-oxophthalazin-2(1H)-yl}acetamide] are 122% and 58.4 nM.
Take `O=C(CC1CC2CCC1C2)Nn1nc(NCc2ccccc2)c2ccccc2c1=O` (racemic) [Example 34, (±)-N-[4-(benzylamino)-1-oxophthalazin-2(1H)-yl]-2-[(exo)-bicyclo[2.2.1]hept-2-yl]acetamide]: the Emax is 161% and the midpoint of the response, the EC50, lay at 142 nM.
On to `O=C(CC1CC2CCC1C2)Nn1nc(Nc2cccc(Cl)c2)c2ccccc2c1=O` (racemic) [Example 35, (±)-2-[(exo)-bicyclo[2.2.1]hept-2-yl]-N-{4-[(3-chlorophenyl)amino]-1-oxophthalazin-2(1H)-yl}acetamide], for which the Emax was determined as 11.4%.
In the case of `CN(Cc1ccccc1)c1nn(NC(=O)CC2CC3CCC2C3)c(=O)c2ccccc12` (racemic) [Example 37, (±)-N-{4-[benzyl(methyl)amino]-1-oxophthalazin-2(1H)-yl}-2-[(exo)-bicyclo[2.2.1]hept-2-yl]acetamide], the Emax was 160% and the EC50 is 42.3 nM.
On the same counts, the results for `O=C(CC1CC2CCC1C2)Nn1nc(Oc2ccccc2)c2ccccc2c1=O` (racemic) [Example 39, (±)-2-[(exo)-bicyclo[2.2.1]hept-2-yl]-N-(1-oxo-4-phenoxyphthalazin-2(1H)-yl)acetamide] are 150% and 9.05 nM.
Take `O=C(CC1CC2CCC1C2)Nn1nc(C(=O)c2ccccc2)c2ccccc2c1=O` (racemic) [Example 40, (±)-N-(4-benzoyl-1-oxophthalazin-2(1H)-yl)-2-[(exo)-bicyclo[2.2.1]hept-2-yl]acetamide]: the Emax is 135% and a half-maximal response (EC50) required 31.1 nM.
In the case of `CC(C)(C)OC(=O)NCc1nn(NC(=O)CC2CC3CCC2C3)c(=O)c2ccccc12` (racemic) [Example 44, (±)-tert-butyl[(3-{[(exo)-bicyclo[2.2.1]hept-2-ylacetyl]amino}-4-oxo-3,4-dihydrophthalazin-1-yl)methyl]carbamate], the Emax is 116% and the EC50 was 294 nM.
The like results for `N#Cc1cc(-c2nn(NC(=O)CC3CC4CCC3C4)c(=O)c3ccccc23)ccn1` (racemic) [Example 45, (±)-2-[(exo)-bicyclo[2.2.1]hept-2-yl]-N-[4-(2-cyanopyridin-4-yl)-1-oxophthalazin-2(1H)-yl]acetamide] were, in that order, 146% and 381 nM.
Take `O=C(CC1CC2CCC1C2)Nn1nc(-c2ccnc(O)c2)c2ccccc2c1=O` (racemic) [Example 46, (±)-2-[(exo)-bicyclo[2.2.1]hept-2-yl]-N-[4-(2-hydroxypyridin-4-yl)-1-oxophthalazin-2(1H)-yl]acetamide]: the Emax is 13.4%.
Consider `CN(C)c1ccc(-c2nn(NC(=O)CC3CC4CCC3C4)c(=O)c3ccccc23)cn1` (racemic) [Example 47, (±)-2-[(exo)-bicyclo[2.2.1]hept-2-yl]-N-{4-[6-(dimethylamino)pyridin-3-yl]-1-oxophthalazin-2(1H)-yl}acetamide], for which the Emax was found to be 122% and the response was half-maximal at 378 nM (EC50).

For the origin of these results see patent publication US8859549B2, “Potassium channel modulators” (AbbVie, Inc., priority 2011, dated 2014).
